Experimental findings from article PMC11488110 (Theranostics, 2024) are described below.

Molecules are shown by their SMILES. Entries after “also recorded” stand apart in the source; their conditions may differ.

Data set [1] is described as follows: Metabolic stability assay in liver microsomes. In kind it is in vitro ADME, mouse. Particulars: 1 μM, 30 min. The method, then: The metabolic stability assay was performed by incubation of human and selected animal liver microsomes (dog, rat, and mouse) with the test compound at a final concentration of 1 μM, in the presence of 0.5 mg/ml microsomal protein and NADPH-regeneration system, in a total volume of 100 μL phosphate buffer 100 mM (pH 7.4) at 37 °C. The incubation was started by introducing the NADPH-regeneration system and terminated by adding 40 μL of ice-cold acetonitrile at 0- and 30 min. Precipitated proteins were removed by centrifugation at 10,000 g and 4 °C for 5 min. Aliquots of the supernatant were injected onto an LC-MS/MS system. Incubations terminated prior to addition of the NADPH-regeneration system (time point, 0 min) were used as standards, defined as 100%. Percent of the parent compound remaining was calculated by comparing peak areas.
Ta b l e S2 . CYP inhibition, microsomal stability, and hERG in hibition of 5a .
CYP inhibitiona Microsomal stabilityb
( % of c ont rol ac ti vit y) (% of remaining compound) hERG inhibitionc (IC50, μ M) […]
aCytochrome P450 (CYP450) enzyme activity was measured by incubating CYP450 enzyme isotype-specific substrates and liver microsomes in the presence of the test compound (10 μM) for 15 min. […]
(Microsomes from liver hold many membrane-bound enzymes, among them those of drug oxidation.)

The subject of data set [2] is Salmonella typhimurium TA98. The data set is described as follows: Ames MPF mutagenicity assay, TA98. The class given is cell-based. As for the experimental part:
(§1) An Ames microplate format (MPF) 98/100 mutagenesis assay kit (Xenometrix) was used to test mutagenic activity. The TA98 / TA100 Salmonella strain was inoculated into the bacterial culture medium and cultured overnight. The Salmonella test strain was then exposed to six concentrations of the test compound (plus positive and negative controls). Samples were prepared in 96-well plates in sterile DMSO. The cultured bacteria, test compound, and S9 mixture were incubated for 90 min at 37 °C in a shaking incubator. The mixture was then treated with an indicator medium and dispensed into 384-well plates. The plates were incubated at 37 °C for 48 h. The number of wells containing revertant colonies was counted for each dose.
(§2) Ta b l e S4 . Tw o -strain Ames mutagenic assess ment of 5a.
(§3) Straina Activity in the absence (-) of S9b Activity in the presence (+) of S9b TA 9 8 Negative (-) Negative (-)
(§4) TA 1 0 0 Negative (-) Negative (-) aSalmonella typhimurium strains TA98 (hi s D3052 mutation) and TA100 (hisG46 mutation) were used to detect frameshift mutations and base- pair substitution mutations, respectively. bAroclor 1254- induced rat liver S9 fraction for exogenous metabolic activation.

The subject of data set [3] is Salmonella typhimurium TA100. The data set is described as follows: Ames MPF mutagenicity assay, TA100. In kind it is cell-based. The method, then:
as §1, §2, §3, §4

The test system of data set [4] is BV-2 microglial cells. The data set is described as follows: Cytotoxicity assay (EZ-Cytox) in BV-2 microglia. In kind it is cell-based, mouse. Particulars: up to 20 μM, 24 h. As for the experimental part: The in vitro cytotoxicity of 5a was evaluated using the EZ-Cytox assay kit (DoGenBio, South Korea). […] Absorbance was measured at 450 nm, after 1 h of incubation with EZ-Cytox containing water-soluble tetrazolium salt (WST), using a SpectraMax®i3 microplate reader (Molecular Devices).

Data set [5] has as its system primary mouse astrocytes. The data set is described as follows: Cytotoxicity assay (EZ-Cytox) in primary mouse astrocytes. In kind it is cell-based. Particulars: up to 30 μM, 24 h.
Data set [6] relates to primary mouse astrocytes. The data set is described as follows: LPS/IFNγ-induced inflammatory responses in primary mouse astrocytes. The class given is cell-based.
Data set [7] relates to PPARδ target genes (Pdk4, Angptl4, Cd36). The data set is described as follows: qRT-PCR of PPARδ target genes in BV-2 microglia and mouse cortex. The class given is cell-based. The conditions noted are these: in vitro (BV-2, 24 h) and in vivo (cortex). As for the experimental part:
Total RNA was isolated using TRIzol® (Invitrogen). Genomic DNA was removed and complementary DNA was synthesized from 500 ng total RNA using the iScript™ gDNA Clear cDNA Synthesis Kit (Bio-Rad). Real-time PCR was performed using the CFX Connect™ Real-Time PCR Detection System (Bio-Rad) using iQ™ SYBR® Green Supermix (Bio-Rad). The hypoxanthine phosphoribosyltransferase (Hprt) was used to normalize mRNA expression levels. Primer sequences used are described in Table S6.
Figure S8. 5a induces transcriptional activation of PPAR δ targ et genes in vitro an d in vivo.
(A-B) qRT-PCR anal ysi s of relative mRNA expression of Ppard and its downstream t arget genes, including Pdk4 , Angptl4, and Cd36. (A) BV-2 microglia were treated with 5a or […]
treated control (one -wa y ANOVA with Dunnett’s test). (B) Cortical homogenates from 10 - month- old WT and APP/PS1 mice treated with vehicle or 5a (30 m g/kg/day for 10 da ys, p.o ) were used for anal ysis (n = 3–4 mice per group). *P < 0.05 and ****P < 0.0001; n.s., not significant (one-wa y ANOVA with Tukey’s test). Hprt mRNA levels were used to normalize the expression of each gene.Data are p resented as mean ± SEM. GW: GW501516.
(1 picture or pasted object on this page, not shown here)
(Quantitative PCR measures a nucleic acid by following its amplification.)

For the molecule `Cc1cc(SCc2[se]c(-c3ccc(C(F)(F)F)cc3)nc2C)ccc1OCC(=O)O` [Compound 5a, {2-Methyl-4-[4-methyl-2-(4-trifluoromethyl-phenyl)-selenazol-5-yl-methylsulfanyl]-phenoxy}-acetic acid], in data set [1], the “Microsomal stability, Mouse (% of remaining compound)” value was 76.1 % of remaining compound. For the same molecule, the “Ames mutagenic activity in the presence (+) of S9” value is on record as “Negative (-); also recorded: lacks mutagenicity” in data set [2] (TA98, with rat liver S9) and “Negative (-); also recorded: lacks mutagenicity” in data set [3] (TA100, with rat liver S9). The “Ames mutagenic activity in the absence (-) of S9” value in data set [2] (TA98, without S9) is recorded as “Negative (-); also recorded: lacks mutagenicity”; in data set [3] (TA100, without S9) it was “Negative (-); also recorded: lacks mutagenicity”. The “Viability of BV-2 cells” value in data set [4] is given as “did not affect the viability; also recorded: less cytotoxic than GW501516”. Moreover, the “Cytotoxicity in primary astrocytes” value in data set [5] was “no cytotoxicity”. For the same molecule, in data set [6] (primary astrocytes), the “LPS/IFNγ-induced NO release” value was “significantly reduced NO release”. In addition, the “LPS/IFNγ-induced production of TNF-α, IL-1β and IL-6” value in data set [6] (primary astrocytes) is listed as “suppressed the production of pro-inflammatory cytokines”. In addition, the “Anti-inflammatory effects on astrocytes compared with GW501516” value in data set [6] (same concentration) is on record as “superior to those of GW501516”. Further, the “Transcription of PPARδ target genes Pdk4, Angptl4, Cd36” value in data set [7] is “induced transcriptional activation”.
